According to US10111847B2, “Compounds and methods for modulating vascular injury” (The Regents of the University of California, priority 2012, dated 2018):

Tests used:
[1] = test system: human sv-VSMCs; test: PDGF-BB induced VSMC cell-shape measurement (phalloidin); assay type: cell-based; settings: 100 nM, 30 min; PDGF-BB 50 ng/ml 1 hr
Experimental: Cells were cultured in 8-well chamber slides (3,000 cells/well) and pretreated with MaR-1 or vehicle (0.1% ethanol) for 30 min followed by the addition of PDGF-BB (50 ng/ml) for 1 h. Cells were washed twice in phosphate-buffered saline (PBS), permeabilized with 0.1% Triton-X, and then fixed in 4% formaldehyde, labeled with Alexa Fluor 568 phalloidin (Invitrogen) and DAPI, and then mounted on glass slides. Cell area and length/width ratio were determined by outlining the cell dimensions and computing 2-dimensional area using GIMP image analysis software (GIMP, freeware; www.gimp.org). For each condition, dimensions were measured from 30 randomly selected cells, and all treatment conditions were performed in triplicate.
Human sv-VSMCs cultured in chamber slides were treated with 7S-Maresin-1 at 100 nM or vehicle for 30 min, followed by PDGF-BB, 50 ng/ml for 1 hr. Cells were then fixed, permeabilized and stained with phalloidin (Life technologies).
FIGS. 21A-21E. (A) Vehicle Control. (B) PDGF-BB, 50 ng/ml. (C) 7S-Maresin-1, 100 nm+PDGF-BB, 50 ng/ml. (D) 7S-Maresin-1, 100 nm+pertussis toxin, 10 ng/ml+PDGF-BB, 50 ng/ml. (E) Graphical summary of N=4 per group. P≤0.01, One-way ANOVA with Dunnett's post hoc test. *P<0.05 compared to PDGF-BB (50 ng/ml). †: P≤0.05 compared to PDGF-BB alone, unpaired t-test. ‡: P≤0.05 compared to PDGF-BB+7S-Maresin-1, unpaired t-test. Error bars: SEM.

[2] = test system: IL-1β-stimulated VSMC; test: Static monocyte (U937) adhesion assay, IL-1β-stimulated VSMC (RvD); assay type: cell-based, human; settings: IL-1β 1 nM 4 hours; 0.01-100 nM
From the text: (§1) Primary cultures of human greater saphenous vein smooth muscle cells (hVSMC) are isolated from saphenous vein discarded at the time of bypass operation in an Institutional Review Board-approved protocol as described by Conte et al. “Regulation of vein graft hyperplasia by survivin, an inhibitor of apoptosis protein.” Arterioscler Thromb Vasc Biol. 2005; 25:2081-2087. VSMCs are maintained in Dulbecco's modified Eagle's medium (DMEM Low Glucose) (HyClone Laboratories Inc, Logan, Utah) containing 10% fetal bovine serum (FBS) (Invitrogen Life Technologies, Grand Island, N.Y.) and used between passages 2-5. Endothelial cells were maintained in Medium 199 supplemented with EBSS (Hyclone Laboratories, Logan, Utah, USA) and Endothelial Cell Growth Supplement. Cells between passages 3-8 were used for the experiments.
RvD. […] Fluorescence measurements (excitation 494 nm, emission 517 nm) of bound monocytes are made with plate reader (Spectra Max M2, Molecular Devices, LLC, Sunnyvale, Calif.).
FIG. 6: RvD1 and RvD2 modulate cell adhesion response of human VSMC to IL-1β. […] Results are shown as relative percent inhibition, expressed as a percentage of the maximal adhesion for the agonist (n=6, results are mean±SEM, **P<0.01, *P<0.05, unpaired t-test).

[3] = test system: VSMC; test: Transwell migration of VSMC to PDGF-AB; assay type: cell-based, human; settings: 100 nM; chemotaxis to PDGF-AB 50 ng/mL, 8 hours; P<0.01
From the text: as §1
RvD. […]
FIG. 1: RvD1 and RvD2 attenuate cell adhesion, proliferation, and migration responses of human VSMC in-vitro. […] Results are shown as relative percent inhibition, expressed as a percentage of the maximal adhesion for the agonist (n=6, results are mean±SEM, **P<0.01, *P<0.05, unpaired t-test). […] Results are expressed as percentage change in migration from unstimulated control (no PDGF). […]

SMILES | PDGF-BB induced vascular smooth muscle cell shape change [1] | inhibition of monocyte adhesion (U937) to IL-1β-stimulated VSMC [2] | Maximum % reduction in the cell migration assay [3] [%]
CC/C=C\C/C=C\C[C@H](O)\C=C/C=C/C=C/[C@@H](O)C/C=C\CCC(=O)O [7S-Maresin-1, 7S,14R-dihydroxydocosa-4Z,8E,10Z,12Z,16Z,19Z-hexaenoic acid] | Alters |  | 
CC/C=C\C[C@H](O)[C@H](O)/C=C/C=C/C=C\C=C\[C@@H](O)C/C=C\CCC(=O)O [RvD2, resolvin D2] |  | dose-dependent inhibition | 69
CC/C=C\C[C@H](O)/C=C/C=C\C=C\C=C\[C@@H](O)[C@@H](O)C/C=C\CCC(=O)O [RvD1, Resolvin D1] |  | dose-dependent inhibition | 63
